Measurements taken from US20030135023A1, “Peptide structures useful for competitive modulation of dipeptidyl peptidase IV catalysis” (priority 2001, published 2003).
Like-named read-outs stand apart in the source and are kept apart here. Square brackets hold non-standard residues; d marks the D form. Peptide text beside a SMILES is read from it. pY = N[C@@H](Cc1ccc(OP(=O)(O)O)cc1)C(=O)O; pS = N[C@@H](COP(=O)(O)O)C(=O)O; Cha = N[C@@H](CC1CCCCC1)C(=O)O; Tle = CC(C)(C)[C@H](N)C(=O)O

Assays:
PEPT1 [1] = target: T1, PEPT1 (Homo sapiens, UniProt P46059); test: Competition assay with transgenic yeast cells, displacement of radiolabeled tracer dipeptide, PEPT1; assay type: binding, mammalian
T1 construct: expressed in transfected cells; host or cells: transgenic yeast cells
T1 sequence (P46059 1-708): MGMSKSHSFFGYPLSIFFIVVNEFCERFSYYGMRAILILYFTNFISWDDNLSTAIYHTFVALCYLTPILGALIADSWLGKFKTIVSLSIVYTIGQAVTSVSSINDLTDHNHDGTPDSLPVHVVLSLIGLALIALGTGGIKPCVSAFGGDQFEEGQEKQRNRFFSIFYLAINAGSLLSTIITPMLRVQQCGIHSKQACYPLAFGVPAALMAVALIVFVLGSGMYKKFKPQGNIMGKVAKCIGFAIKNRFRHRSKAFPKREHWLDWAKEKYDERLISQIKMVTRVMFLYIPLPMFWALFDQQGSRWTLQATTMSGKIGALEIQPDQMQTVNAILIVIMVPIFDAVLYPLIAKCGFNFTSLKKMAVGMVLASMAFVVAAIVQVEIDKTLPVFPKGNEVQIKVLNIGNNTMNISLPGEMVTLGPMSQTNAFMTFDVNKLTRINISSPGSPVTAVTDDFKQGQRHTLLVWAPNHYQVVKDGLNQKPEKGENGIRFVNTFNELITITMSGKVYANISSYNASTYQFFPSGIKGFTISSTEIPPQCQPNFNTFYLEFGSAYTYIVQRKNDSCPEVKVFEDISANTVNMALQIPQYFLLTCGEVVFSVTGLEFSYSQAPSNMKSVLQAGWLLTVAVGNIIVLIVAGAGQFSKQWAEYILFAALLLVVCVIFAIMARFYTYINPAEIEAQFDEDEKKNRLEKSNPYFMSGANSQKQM
Excerpt: (§1) For the analysis o the interaction of the inhibitors of prolyl-specific proteases with the mammalian peptide transporters two assay systems were used. First, all test compounds were submitted to the competition assay with transgenic yeast cells to determine the dose-dependent displacement (EC50 values) of the radiolabeled tracer dipepitde from the substrate binding site. […] As the level of functional expression varies in oocytes, each test compound was compared in the same oocyte with the current elicited by 5 mM of the dipeptide glycyl-L-glutamine (Gly-Gln). Currents of test compounds are therefore given relative to that by Gly-Gln as %I Gly-Gin, expressed as residual uptake in table 10.

PEPT2 [2] = target: T2, PEPT2 (Homo sapiens, UniProt Q16348); test: Competition assay with transgenic yeast cells, displacement of radiolabeled tracer dipeptide, PEPT2; assay type: binding, mammalian
T2 construct: expressed in transfected cells; host or cells: transgenic yeast cells
T2 sequence (Q16348 1-729): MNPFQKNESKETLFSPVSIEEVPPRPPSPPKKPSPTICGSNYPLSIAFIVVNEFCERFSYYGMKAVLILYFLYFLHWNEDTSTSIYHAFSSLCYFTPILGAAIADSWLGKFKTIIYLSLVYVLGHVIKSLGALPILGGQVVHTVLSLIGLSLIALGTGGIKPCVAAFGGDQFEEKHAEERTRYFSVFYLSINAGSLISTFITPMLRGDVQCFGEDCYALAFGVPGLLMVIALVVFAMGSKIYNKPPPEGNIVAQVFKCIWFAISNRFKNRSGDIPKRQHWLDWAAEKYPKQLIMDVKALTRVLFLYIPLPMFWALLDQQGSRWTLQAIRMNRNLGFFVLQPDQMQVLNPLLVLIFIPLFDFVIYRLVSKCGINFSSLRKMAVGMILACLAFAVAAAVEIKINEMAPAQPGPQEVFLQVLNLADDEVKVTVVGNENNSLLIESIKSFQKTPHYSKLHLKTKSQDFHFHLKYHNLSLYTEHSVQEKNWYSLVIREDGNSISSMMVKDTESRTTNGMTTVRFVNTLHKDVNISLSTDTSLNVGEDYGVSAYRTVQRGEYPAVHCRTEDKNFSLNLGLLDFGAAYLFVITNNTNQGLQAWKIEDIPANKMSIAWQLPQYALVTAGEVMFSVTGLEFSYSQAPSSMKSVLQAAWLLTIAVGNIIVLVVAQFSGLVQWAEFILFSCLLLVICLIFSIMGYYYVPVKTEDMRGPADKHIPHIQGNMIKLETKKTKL
Excerpt: as §1

purified porcine DP IV [3] = target: T3, purified porcine DP IV (Sus scrofa, UniProt P22411); test: Determination of Ki-values, Gly-Pro-pNA cleavage by DP IV; assay type: biochemical; details: Gly-Pro-pNA 0.05-0.4 mM
T3 sequence (P22411 whole entry): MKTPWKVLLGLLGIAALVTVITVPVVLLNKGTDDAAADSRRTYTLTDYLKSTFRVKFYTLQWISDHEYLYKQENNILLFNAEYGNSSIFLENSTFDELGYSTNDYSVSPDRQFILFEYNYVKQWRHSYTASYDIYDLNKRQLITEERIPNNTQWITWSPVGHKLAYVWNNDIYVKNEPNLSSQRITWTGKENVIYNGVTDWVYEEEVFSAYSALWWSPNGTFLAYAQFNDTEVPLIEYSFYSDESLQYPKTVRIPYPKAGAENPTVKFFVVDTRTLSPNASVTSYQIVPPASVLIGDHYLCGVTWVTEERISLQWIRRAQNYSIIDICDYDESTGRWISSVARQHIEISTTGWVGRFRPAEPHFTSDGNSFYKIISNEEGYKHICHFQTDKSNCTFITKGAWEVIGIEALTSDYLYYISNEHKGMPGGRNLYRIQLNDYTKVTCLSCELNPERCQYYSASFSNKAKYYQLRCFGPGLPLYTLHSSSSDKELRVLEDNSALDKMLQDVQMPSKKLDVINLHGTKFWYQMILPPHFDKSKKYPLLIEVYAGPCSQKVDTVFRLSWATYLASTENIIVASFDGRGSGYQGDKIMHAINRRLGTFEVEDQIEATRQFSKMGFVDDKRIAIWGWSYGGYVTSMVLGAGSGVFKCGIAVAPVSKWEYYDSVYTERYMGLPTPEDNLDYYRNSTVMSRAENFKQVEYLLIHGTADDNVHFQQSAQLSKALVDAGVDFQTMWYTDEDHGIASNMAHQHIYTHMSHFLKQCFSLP
Description: (§2) 100 μl inhibitor stock solution were mixed with 100 μl buffer (HEPES pH 7.6) and 50 μl substrate (Gly-Pro-pNA, final concentration 0.4 mM) and preincubated at 30° C. Reaction was started by addition of 20 μl purified porcine DP IV. Formation of the product pNA was measured at 405 nm over 10 min using the HTS 7000 Plus plate reader (Perkin Elmer) and slopes were calculated. The final inhibitor concentrations ranged between 1 mM and 30 nM.
Calculations were performed using the GraFit Software.

purified porcine DP IV [4] = target: T3, purified porcine DP IV; test: Determination of IC50-values, Gly-Pro-pNA cleavage by DP IV; assay type: biochemical
Description: as §2
For calculation of IC50-values GraFit 4.0.13 (Erithacus Software) was used.

PEPT2 [5] = target: T2, PEPT2; test: Electrophysiological analysis of transport currents in Xenopus oocytes expressing PEPT2; assay type: cell-based, mammalian; details: transport current in Xenopus oocytes relative to 5 mM Gly-Gln
Excerpt: as §1

PEPT1 [6] = target: T1, PEPT1; test: Electrophysiological analysis of transport currents in Xenopus oocytes expressing PEPT1; assay type: cell-based, mammalian; details: transport current in Xenopus oocytes relative to 5 mM Gly-Gln
Excerpt: as §1

plasma DP IV = target: T4, plasma DP IV (Rattus norvegicus, UniProt P14740); test: Plasma DP IV activity after intravasal and oral administration in Wistar rats; assay type: in vivo
T4 construct: The assay mixture consisted of 80 μl reagent and 20 μl plasma; from tissue; host or cells: plasma of Wistar rats
T4 sequence (P14740 37-767 limits assumed): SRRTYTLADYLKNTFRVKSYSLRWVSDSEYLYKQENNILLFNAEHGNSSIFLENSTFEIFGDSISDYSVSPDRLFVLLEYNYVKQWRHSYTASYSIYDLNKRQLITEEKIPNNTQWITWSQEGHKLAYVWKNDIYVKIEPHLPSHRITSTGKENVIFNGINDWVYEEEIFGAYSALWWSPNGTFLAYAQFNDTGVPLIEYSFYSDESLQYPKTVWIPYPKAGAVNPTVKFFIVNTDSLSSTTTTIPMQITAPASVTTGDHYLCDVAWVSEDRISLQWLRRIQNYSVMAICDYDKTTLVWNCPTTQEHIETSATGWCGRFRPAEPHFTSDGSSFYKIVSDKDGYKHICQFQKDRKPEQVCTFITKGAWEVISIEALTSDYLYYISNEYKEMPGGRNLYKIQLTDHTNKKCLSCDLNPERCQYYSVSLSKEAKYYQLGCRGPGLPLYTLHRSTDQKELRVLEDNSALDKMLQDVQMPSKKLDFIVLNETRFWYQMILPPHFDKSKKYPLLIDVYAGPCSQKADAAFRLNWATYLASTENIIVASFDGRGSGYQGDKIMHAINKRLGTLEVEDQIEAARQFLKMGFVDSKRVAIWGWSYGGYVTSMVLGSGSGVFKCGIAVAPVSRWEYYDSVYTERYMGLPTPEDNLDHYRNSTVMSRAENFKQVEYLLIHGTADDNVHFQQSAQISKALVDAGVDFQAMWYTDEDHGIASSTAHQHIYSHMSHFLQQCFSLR
Description: Rats with intact catheter function were given the test substances intravasal (intraarterial) or oral, respectively, in random order (N=3 Wistar rats in each group). As positive control, […]. isoleucine thiazolidine*fumarate were administered intravasal.
After overnight fasting, 100 μl samples of heparinized arterial blood were collected at −30, −5, and 0 min into ice-cooled Eppendorf tubes (see below). The test substances were dissolved freshly in 1.0 ml saline (0.154 mol/l) and were given at 0 min either oral via a feeding tube ([…], 75 mm; Fine Science Tools, Heidelberg, Germany) or intravasal. For the intravasal route, the catheter was immediately flushed with 30 μl saline and an additional 1 ml of saline was given orally via the feeding tube.
Arterial blood samples were taken thereafter at 5, 10 (only in a limited number of experiments), 20, 40, 60 and 120 min from the carotid catheter of the conscious unrestrained rats and were always given into ice cooled Eppendorf tubes (Eppendorf-Netheler-Hinz, Hamburg, Germany) filled with 10 μl 1 M citrate buffer pH 3.0 for prevention of further hydrolysis of tripeptides by plasma DP IV activity. Eppendorf tubes were centrifuged immediately (12000 rpm for 2 min, Hettich Zentrifuge EBA 12, Tuttlingen; Germany): The plasma fractions were store on ice until analysis or were deeply frozen at −20 ° C. until analysis.
Plasma DP IV activity: The assay mixture consisted of 80 μl reagent and 20 μl plasma. Kinetic measurements of the formation of the yellow product 4-nitroaniline were performed at 390 nm for 1 min at 30° C. after 2 min pre-incubation at the same temperature. The activity was expressed as arbitrary units [AU] and DP IV activity [mU/ml].
The absolute values of plasma DP IV activity, the relative change of plasma DP IV activity and the time and extent of maximal inhibition were calculated. Data presentation included the presentation of area under the curve (AUC), which was used for evaluation of extent of inhibition of plasma DP IV activity during the two hours of observation. AUC was calculated using the trapezoidal rule.
To compare relative changes of parameters under the conditions of different initial values of DP IV activity an uniform standardised mean (values) was set up at the beginning of the test (see Figures and Tables).
Statistical evaluations were performed with Microsoft Excel® 97. All variables are presented as mean and standard deviation (SD). Treatment groups were compared by Student's t-test, within-group changes by paired t-test. Two-tailed values of p<0.05 were considered significant.

[7] = displacement of radiolabeled tracer dipeptide, transgenic yeast cells, read-out: PEPT1 EC50
[8] = displacement of radiolabeled tracer dipeptide, transgenic yeast cells, read-out: PEPT2 EC50
[9] = Gly-Pro-pNA 0.4 mM, HEPES pH 7.6, 30° C., read-out: IC50

CC[C@H](C)[C@H](NC(=O)[C@@H]1CCCN1C(=O)[C@@H](N)CC1CCCCC1)C(=O)O [Cha-Pro-Ile] (H-[Cha]-Pro-Ile-OH; N-terminus and C-terminus assumed)
EC50 (PEPT1 [1]; [7]): 141 ± 9 µM | EC50 (PEPT2 [2]; [8]): 124 ± 1 µM | Ki (purified porcine DP IV [3]): 5.99 µM | IC50 (purified porcine DP IV [4]; [9]): 20.3 µM | PEPT2 Residual uptake % IGly-Gln (PEPT2 [5]): 100 % IGly-Gln | PEPT1 Residual uptake % IGly-Gln (PEPT1 [6]): 90 % IGly-Gln

CC[C@H](C)[C@H](NC(=O)[C@@H]1CCCN1C(=O)[C@@H](N)COP(=O)(O)O)C(=O)O [Ser(P)-Pro-Ile] (H-[pS]-Pro-Ile-OH; N-terminus and C-terminus assumed)
EC50 (PEPT1 [1]; [7]): 4100 ± 1300 µM | EC50 (PEPT2 [2]; [8]): 4900 ± 1090 µM | IC50 (purified porcine DP IV [4]; [9]): 12000 µM | PEPT2 Residual uptake % IGly-Gln (PEPT2 [5]): 0 % IGly-Gln | PEPT1 Residual uptake % IGly-Gln (PEPT1 [6]): 0 % IGly-Gln

CC[C@H](C)[C@H](NC(=O)[C@@H]1CCCN1C(=O)[C@@H](N)Cc1ccc(OP(=O)(O)O)cc1)C(=O)O [Tyr(P)-Pro-Ile] (H-[pY]-Pro-Ile-OH; N-terminus and C-terminus assumed)
DPIV inhibition at tmax, p.o. (plasma DP IV; Wistar rats, p.o., 100 mg/kg): no inhibition | inhibition at 100 mg/kg (plasma DP IV; rat, iv, read-out: DPIV inhibition at tmax, i.v.): 37% | EC50 (PEPT1 [1]): 902 ± 58 µM | EC50 (PEPT2 [2]): 390 ± 17 µM | IC50 (purified porcine DP IV [4]): 1770 µM | PEPT2 Residual uptake % IGly-Gln (PEPT2 [5]): 0 % IGly-Gln | PEPT1 Residual uptake % IGly-Gln (PEPT1 [6]): 0 % IGly-Gln

CC[C@@H](C)[C@@H](NC(=O)[C@@H]1CCCN1C(=O)[C@@H](N)C(C)(C)C)C(=O)O [t-butyl-Gly-Pro-D-Ile] (H-[Tle]-Pro-[dI]-OH; N-terminus and C-terminus assumed)
EC50 (PEPT1 [1]; [7]): 10600 ± 64 µM | EC50 (PEPT2 [2]; [8]): 2300 ± 1120 µM | PEPT2 Residual uptake % IGly-Gln (PEPT2 [5]): 0 % IGly-Gln | PEPT1 Residual uptake % IGly-Gln (PEPT1 [6]): 0 % IGly-Gln

CC(C)[C@@H](NC(=O)[C@@H]1CCCN1C(=O)[C@@H](N)C(C)(C)C)C(=O)O [t-butyl-Gly-Pro-D-Val] (H-[Tle]-Pro-[dV]-OH; N-terminus and C-terminus assumed)
EC50 (PEPT1 [1]; [7]): 11100 ± 2800 µM | EC50 (PEPT2 [2]; [8]): 1500 ± 240 µM | Ki (purified porcine DP IV [3]): 26.5 µM | IC50 (purified porcine DP IV [4]; [9]): 112 µM | PEPT2 Residual uptake % IGly-Gln (PEPT2 [5]): 0 % IGly-Gln | PEPT1 Residual uptake % IGly-Gln (PEPT1 [6]): 0 % IGly-Gln
